Consider one compound from article PMC6934184, “Selective DNA-PKcs inhibition extends the therapeutic index of localized radiotherapy and chemotherapy” (The Journal of Clinical Investigation, 2019).

This experiment addresses T1, CAMKK2 (CaMKK beta) (Homo sapiens, UniProt Q96RR4).
T1 construct: purchased Thermo Fisher Scientific (Life Technologies) SelectScreen
Kind of experiment: SelectScreen LanthaScreen. In kind it is binding. The following applies: read-out: % displacement. Summed up: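 NU5455 was profiled across the SelectScreen Broad panel of kinase activity and binding assays. Z'LYTE reactions such as CSF1R ran at apparent Km ATP, while the Adapta CAMK1 assay used ATP listed as 10. Values are given as percent.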
In general terms: Time-resolved FRET reads energy transfer from a long-lived donor to a nearby acceptor.

The structures appear in SMILES notation.

T1 sequence (Q96RR4 whole entry): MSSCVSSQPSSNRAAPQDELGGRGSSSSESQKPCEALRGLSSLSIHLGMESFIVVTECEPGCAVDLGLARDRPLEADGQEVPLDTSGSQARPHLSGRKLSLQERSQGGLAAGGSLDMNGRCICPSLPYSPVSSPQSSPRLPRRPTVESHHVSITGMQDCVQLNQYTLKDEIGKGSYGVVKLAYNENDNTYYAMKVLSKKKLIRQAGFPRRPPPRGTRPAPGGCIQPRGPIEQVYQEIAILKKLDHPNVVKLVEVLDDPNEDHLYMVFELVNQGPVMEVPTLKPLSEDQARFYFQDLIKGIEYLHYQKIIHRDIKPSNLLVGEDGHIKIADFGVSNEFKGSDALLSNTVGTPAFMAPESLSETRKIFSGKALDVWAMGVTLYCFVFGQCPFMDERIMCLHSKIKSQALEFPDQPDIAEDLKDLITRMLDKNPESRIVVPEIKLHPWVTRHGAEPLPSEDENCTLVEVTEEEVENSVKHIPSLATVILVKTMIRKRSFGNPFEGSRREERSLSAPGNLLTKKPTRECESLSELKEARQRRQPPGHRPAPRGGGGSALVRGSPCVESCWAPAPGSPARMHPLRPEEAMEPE

On to `CN(C(=O)CN1CCOCC1)c1ccc2sc3c(-c4cccc5c(=O)cc(N6CC7CCC(C6)O7)oc45)cccc3c2c1` [NU5455], for which the inhibition at 1 µM came to 0.9%.
